Positions of bridges follow the written chain, without caps; N, C: chain ends. Non-standard residues stand in square brackets, D forms with d. Residues, ends and D or L forms follow the SMILES beside them. dCha = N[C@H](CC1CCCCC1)C(=O)O
Columns and labels:
[1] = Lipid II binding, spot-on-lawn assays on S. aureus ATCC 33591; set-up: species or system Staphylococcus aureus; conditions: overnight 37 °C
Description: 6 Spot-on-lawn assays to evaluate binding of Lipid II with analogue 12 on S. aureus ATCC 33591. (A) Analogue 12 was premixed with increasing ratios of lipid II (0.5 to 4 equiv) and spotted onto a seeded lawn of S. aureus 33591. Lipid II and analogue 12 were also spotted independently. The position of the analogue 12–lipid II mixture is marked in red. (B) Daptomycin was used as a negative control. Asterisks denote the positions of analogue 12 (black), lipid II (blue), and daptomycin (green) additions.
Analogue 12 was premixed with increasing ratios of lipid II (0.5 to 4 equiv) for 10 min prior to spotting onto agar plates seeded with a lawn of S. aureus ATCC 33591 and incubated overnight.
XII. Lipid II binding determination of analogue 12
Previously reported methods were used to determine the lipid II binding of analogue 126,7. The lipid II used in this study was prepared by chemical synthesis and its preparation and purification has been […]
A: An overnight culture of S. aureus ATCC 33591 was added to LB agar (45 °C) at a final concentration of 0.1% (vol/vol) and pour-plated into 90 mm petri dishes. Binding of 12 to purified lipid II was assessed using a spot-on-lawn assay. Premixed solutions (5 µL) containing analogue 12 (8 µg) with varying concentration of lipid II were spotted onto the agar, alongside individual controls of 12 and lipid II.
After drying, plates were incubated overnight at 37 °C. This assay was performed in duplicates.
B: To assess the interaction between analogue 12 and lipid II, a culture of S. aureus ATCC 33591 was grown overnight in LB broth and inoculated into LB agar at a final concentration of 1% (v/v) at 45°C.
This mixture was evenly distributed into 90mm petri dishes. Antibiotic inhibition haloes were previously determined by spotting analogue 12 and daptomycin (5 μL,8 µg/mL) onto agar plates and measuring the diameter of the halo after overnight incubation at 37 °C . The binding affinity of analogue 12 and lipid II was later examined by applying purified lipid II (300 μM, 2 μL) to the edge of the antibiotic halo. Analogue 12 and Daptomycin were applied to the inoculated agar plate at a spaced distance, once the antimicrobial solution drops had dried, lipid II was spotted on the edge of the inhibition halo. The plates were then incubated overnight at 37 °C. […]

[2] = tested on: human red blood cells (RBCs); assay: Hemolysis assay; format: cell-based; conditions: 1 h, 37 °C, PBS pH 7.0, absorbance 576 nm, 4 donors in duplicate
Experimental: 4 Cytotoxicity evaluation of analogue 12. Human primary dermal fibroblasts (A), liver cell line HepG2 (B), and kidney cell line HEK293T (C) cells (5 × 10^3 cells/well in 96-well plates) were treated with increasing concentrations of analogue 12 or 1 μM staurosporine (STS, used as a positive toxicity control) for 24 or 48 h, as indicated. Viability of cells was determined using an MTS-based assay. Results (% cell viability) are the mean ± SD of three independent experiments performed in triplicate. (D) Freshly collected human red blood cells (RBCs) were exposed to increasing concentrations of 12 or Triton X-100 (TX), as indicated, for 1 h. Hemolytic activity (% hemolysis) was determined by spectrophotometrically measuring the release of hemoglobin compared to that with TX (used as a positive control). […]
day, cells were treated in triplicates with increasing concentrations of Novltex analogue 12, as indicated in the corresponding figure and the figure legend (Figure 4A-C). […] Cell viability assessed after 24 h or 48 h incubation using an MTS-based CellTiter 96® AQueous One Solution Cell Proliferation Assay (Promega #G3582, Southampton UK) as per manufacturer’s instructions. Absorbance was recorded at 490 nm. Relative cell viability was determined by subtracting the blank (cell culture medium and MTS only) from individual values before normalizing against the untreated control. […]

## CC(C)C[C@@H]1NC(=O)[C@H](C)NC(=O)[C@H](NC(=O)[C@H](CO)NC(=O)[C@@H](CCCCN)NC(=O)[C@@H](CC2CCCCC2)NC(=O)[C@@H](N)Cc2ccccc2)[C@H](C)OC(=O)[C@H](CC(C)C)NC1=O [analogue 12, Leu2Cha–Novltex] (H-F[dCha][dK]S[dT]ALL; ester 5-C)
[1]; absence of lipid II, 8 µg spotted, duplicates
  zone of inhibition, spot-on-lawn: clear and substantial zone of inhibition
[1]; lipid II 1:1 ratio, premixed 10 min
  zone of inhibition, spot-on-lawn, premixed with lipid II: antimicrobial activity was completely abolished
[1]; lipid II (300 μM, 2 μL) at the edge of the antibiotic halo, duplicates
  halo distortion on addition of lipid II: formed a noncircular spot
[1]; lipid II ratio 0.5, premixed 10 min
  zone of inhibition, spot-on-lawn, premixed with lipid II: only a faint zone remained
[2]; 62.5 μg/mL (125× MIC)
  hemolysis of human erythrocytes: low hemolysis
[2]; concentrations up to 31.2 μg/mL
  hemolysis of human erythrocytes: no detectable hemolysis
